From US20260226029A1, “1-(1-Oxo-1,2-Dihydrophthalazin-6-yl)Cycloalkyl-1-Carboxamide Derivatives as MTA-Cooperative Inhibitors of PRMT5” (BeOne Medicines I GmbH, priority 2023, published 2026)

What was measured:
HCT116-MTAP-KO = assay: Compounds cell killing in HCT116 isogenic pair (CellTiter-Glo, 6 days), MTAP-KO cells; assay type: cell-based; details: Homo sapiens, HCT-116, 144 h, Cell Titer-Glo, 0-10 μM
Description: (§1) HCT116 cell line (ATCC, CCL-247) was isolated from the colon of an adult with colon cancer. It has a mutation in codon 13 of the ras proto-oncogene and can be used as a positive control for PCR assays of mutation in this codon. HCT116-MTAP-KO was knocked-out-MTAP-gene based HCT116, and a single clone was passed for this assay. HCT116-mock-RNA-KO was knocked-out-mock-gene based HCT116 with MTAP wildtype genotype. The base medium for HCT116 isogenic pair is RPMI 1640, HEPES (Gibco, 22400105). To make the complete growth medium, add the following components to the base medium: fetal bovine serum to a final concentration of 10% (Gibco, 10099-141C). The cell line was grown in a humidified 5% CO2 atmosphere at 37° C. and regularly tested for the presence of mycoplasma with MycoAlert™ PLUS Mycoplasma Detection Kit (Lonza, LT07-710).
(§2) • Seed HCT116-mock-RNA-KO (4E2/well) or HCT116-MTAP-KO (4E2/well) cells into a 96-well plate (Greiner: 655090), 100 µL/well. • Incubate at 37° C., 5% CO2, overnight. • Add 50 μL fresh growth-medium containing serial dilution of compounds for a final compound concentration of 0-10 μM to each well. • Incubate at 37° C., 5% CO2, 6 days. • The cell viability detected by Cell Titer-Glo (Promega, G7573). Add 70 μL of CellTiter-Glo® reagent in each well. • Incubate at room temperature for 10 minutes to stabilize luminescent signal. • Analyze with Microplate Reader (TECAN, SPARK) and fit IC50 using Prism® 9.

HCT116-mock-RNA-KO = assay: Compounds cell killing in HCT116 isogenic pair (CellTiter-Glo, 6 days), mock-KO (MTAP wildtype) cells; assay type: cell-based; details: Homo sapiens, HCT-116, 144 h, Cell Titer-Glo, 0-10 μM
Description: as §1, §2

Compound: NCc1n[nH]c(=O)c2ccc(C3(C(=O)N(Cc4ncc(Br)c5ccccc45)C4CCCc5cccnc54)CC3)cc12 (stereo not shown) [Example 15, 1-(4-(aminomethyl)-1-oxo-1,2-dihydrophthalazin-6-yl)-N-((4-bromoisoquinolin-1-yl)methyl)-N-(5,6,7,8-tetrahydroquinolin-8-yl)cyclopropane-1-carboxamide]
- IC50 (HCT116-MTAP-KO): 942 nM
- IC50 (HCT116-mock-RNA-KO): 5080 nM

Compound: NCc1n[nH]c(=O)c2ccc(C3(C(=O)N(Cc4ccc(-c5c(F)cccc5F)cn4)C4CCC4)CC3)cc12 [Example 25, 1-(4-(aminomethyl)-1-oxo-1,2-dihydrophthalazin-6-yl)-N-cyclobutyl-N-((5-(2,6-difluorophenyl)pyridin-2-yl)methyl)cyclopropane-1-carboxamide]
- IC50 (HCT116-MTAP-KO): 3690 nM
- IC50 (HCT116-mock-RNA-KO): > 10000 nM

Compound: CC(C)(O)c1ccc(CN(C(=O)C2(c3ccc4c(=O)[nH]nc(CN)c4c3)CC2)C2CCCc3cccnc32)nc1 (stereo not shown) [Example 6, 1-(4-(aminomethyl)-1-oxo-1,2-dihydrophthalazin-6-yl)-N-((5-(2-hydroxypropan-2-yl)pyridin-2-yl)methyl)-N-(5,6,7,8-tetrahydroquinolin-8-yl)cyclopropane-1-carboxamide]
- IC50 (HCT116-MTAP-KO): 2560 nM
- IC50 (HCT116-mock-RNA-KO): > 10000 nM

Compound: NCc1n[nH]c(=O)c2ccc(C3(C(=O)N(Cc4ccc(-c5c(F)cccc5F)cn4)C4CCc5cccnc54)CC3)cc12 (stereo not shown) [Example 33, 1-(4-(aminomethyl)-1-oxo-1,2-dihydrophthalazin-6-yl)-N-((5-(2,6-difluorophenyl)pyridin-2-yl)methyl)-N-(6,7-dihydro-5H-cyclopenta[b]pyridin-7-yl)cyclopropane-1-carboxamide]
- IC50 (HCT116-MTAP-KO): 150 nM
- IC50 (HCT116-mock-RNA-KO): 9800 nM

Compound: NCc1n[nH]c(=O)c2ccc(C3(C(=O)N(Cc4ccc(-c5ccccc5)cn4)C4CCCc5cccnc54)CC3)cc12 (stereo not shown) [Example 10, 1-(4-(aminomethyl)-1-oxo-1,2-dihydrophthalazin-6-yl)-N-((5-phenylpyridin-2-yl)methyl)-N-(5,6,7,8-tetrahydroquinolin-8-yl)cyclopropane-1-carboxamide]
- IC50 (HCT116-MTAP-KO): 18 nM
- IC50 (HCT116-mock-RNA-KO): 7230 nM

Compound: CC(C)(C)c1ccc(CN(C(=O)C2(c3ccc4c(=O)[nH]nc(CN)c4c3)CC2)C2CCCc3cccnc32)nc1 (stereo not shown) [Example 14, 1-(4-(aminomethyl)-1-oxo-1,2-dihydrophthalazin-6-yl)-N-((5-(tert-butyl)pyridin-2-yl)methyl)-N-(5,6,7,8-tetrahydroquinolin-8-yl)cyclopropane-1-carboxamide]
- IC50 (HCT116-MTAP-KO): 378 nM
- IC50 (HCT116-mock-RNA-KO): > 10000 nM

Compound: NCc1n[nH]c(=O)c2ccc(C3(C(=O)N(Cc4ccc(-c5ccccc5)cn4)[C@H]4CCCc5cccnc54)CC3)cc12 [Example 11B, (S)-1-(4-(aminomethyl)-1-oxo-1,2-dihydrophthalazin-6-yl)-N-((5-phenylpyridin-2-yl)methyl)-N-(5,6,7,8-tetrahydroquinolin-8-yl)cyclopropane-1-carboxamide]
- IC50 (HCT116-MTAP-KO): 2090 nM
- IC50 (HCT116-mock-RNA-KO): > 10000 nM

Compound: CC(c1ncccn1)N(Cc1ccc(C(F)(F)F)cn1)C(=O)C1(c2ccc3c(=O)[nH]nc(CN)c3c2)CC1 (stereo not shown) [Example 29, 1-(4-(aminomethyl)-1-oxo-1,2-dihydrophthalazin-6-yl)-N-(1-(pyrimidin-2-yl)ethyl)-N-((5-(trifluoromethyl)pyridin-2-yl)methyl)cyclopropane-1-carboxamide]
- IC50 (HCT116-MTAP-KO): 1440 nM
- IC50 (HCT116-mock-RNA-KO): > 10000 nM

Compound: NCc1n[nH]c(=O)c2ccc(C3(C(=O)N(Cc4ccc(S(F)(F)(F)(F)F)cc4)[C@@H]4CCCc5cccnc54)CC3)cc12 [Example 31, (R)-1-(4-(aminomethyl)-1-oxo-1,2-dihydrophthalazin-6-yl)-N-(4-(pentafluoro-λ^6-sulfanyl)benzyl)-N-(5,6,7,8-tetrahydroquinolin-8-yl)cyclopropane-1-carboxamide]
- IC50 (HCT116-MTAP-KO): 18 nM
- IC50 (HCT116-mock-RNA-KO): 3150 nM

Compound: N#Cc1cccc(Cl)c1-c1ccc(CN(C(=O)C2(c3ccc4c(=O)[nH]nc(CN)c4c3)CC2)C2CCCc3cccnc32)nc1 (stereo not shown) [Example 13, 1-(4-(aminomethyl)-1-oxo-1,2-dihydrophthalazin-6-yl)-N-((5-(2-chloro-6-cyanophenyl)pyridin-2-yl)methyl)-N-(5,6,7,8-tetrahydroquinolin-8-yl)cyclopropane-1-carboxamide]
- IC50 (HCT116-MTAP-KO): 62 nM
- IC50 (HCT116-mock-RNA-KO): 3950 nM

Compound: NCc1n[nH]c(=O)c2ccc(C3(C(=O)N(Cc4ccc(C(F)(F)F)cn4)[C@@H]4CCCc5cccnc54)CC3)cc12 [Example 2A, (R)-1-(4-(aminomethyl)-1-oxo-1,2-dihydrophthalazin-6-yl)-N-(5,6,7,8-tetrahydroquinolin-8-yl)-N-((5-(trifluoromethyl)pyridin-2-yl)methyl)cyclopropane-1-carboxamide]
- IC50 (HCT116-MTAP-KO): 98 nM
- IC50 (HCT116-mock-RNA-KO): 3680 nM

Compound: Cc1nc(CN(C(=O)C2(c3ccc4c(=O)[nH]nc(CN)c4c3)CC2)C2CCCc3cccnc32)ccc1-c1ccccc1 (stereo not shown) [Example 8, 1-(4-(aminomethyl)-1-oxo-1,2-dihydrophthalazin-6-yl)-N-((6-methyl-5-phenylpyridin-2-yl)methyl)-N-(5,6,7,8-tetrahydroquinolin-8-yl)cyclopropane-1-carboxamide]
- IC50 (HCT116-MTAP-KO): 255 nM
- IC50 (HCT116-mock-RNA-KO): 5250 nM

Compound: COCC(COC)N(Cc1ccc(-c2c(F)cccc2F)cn1)C(=O)C1(c2ccc3c(=O)[nH]nc(CN)c3c2)CC1 [Example 30, 1-(4-(aminomethyl)-1-oxo-1,2-dihydrophthalazin-6-yl)-N-((5-(2,6-difluorophenyl)pyridin-2-yl)methyl)-N-(1,3-dimethoxypropan-2-yl)cyclopropane-1-carboxamide]
- IC50 (HCT116-MTAP-KO): 254 nM
- IC50 (HCT116-mock-RNA-KO): > 10000 nM

Compound: N#Cc1cccc(F)c1-c1ccc(CN(C(=O)C2(c3ccc4c(=O)[nH]nc(CN)c4c3)CC2)C2CCCc3cccnc32)nc1 (stereo not shown) [Example 28, 1-(4-(aminomethyl)-1-oxo-1,2-dihydrophthalazin-6-yl)-N-((5-(2-cyano-6-fluorophenyl)pyridin-2-yl)methyl)-N-(5,6,7,8-tetrahydroquinolin-8-yl)cyclopropane-1-carboxamide]
- IC50 (HCT116-MTAP-KO): 102 nM
- IC50 (HCT116-mock-RNA-KO): 3210 nM

Compound: NCc1n[nH]c(=O)c2ccc(C3(C(=O)N(Cc4ccc(C(F)(F)F)cn4)C4CCCc5c(C6CC6)ccnc54)CC3)cc12 (stereo not shown) [Example 32, 1-(4-(aminomethyl)-1-oxo-1,2-dihydrophthalazin-6-yl)-N-(4-cyclopropyl-5,6,7,8-tetrahydroquinolin-8-yl)-N-((5-(trifluoromethyl)pyridin-2-yl)methyl)cyclopropane-1-carboxamide]
- IC50 (HCT116-MTAP-KO): 140 nM
- IC50 (HCT116-mock-RNA-KO): 7330 nM

Compound: Cc1cc(CN(C(=O)C2(c3ccc4c(=O)[nH]nc(CN)c4c3)CC2)C2CCCc3cccnc32)ncc1C(F)(F)F (stereo not shown) [Example 7, 1-(4-(aminomethyl)-1-oxo-1,2-dihydrophthalazin-6-yl)-N-((4-methyl-5-(trifluoromethyl)pyridin-2-yl)methyl)-N-(5,6,7,8-tetrahydroquinolin-8-yl)cyclopropane-1-carboxamide]
- IC50 (HCT116-MTAP-KO): 285 nM
- IC50 (HCT116-mock-RNA-KO): > 10000 nM

Compound: NCc1n[nH]c(=O)c2ccc(C3(C(=O)N(Cc4ccc(C(F)(F)F)cn4)C4CCCc5cccnc54)CC3)cc12 (stereo not shown) [Example 1, 1-(4-(aminomethyl)-1-oxo-1,2-dihydrophthalazin-6-yl)-N-(5,6,7,8-tetrahydroquinolin-8-yl)-N-((5-(trifluoromethyl)pyridin-2-yl)methyl)cyclopropane-1-carboxamide]
- IC50 (HCT116-MTAP-KO): 98 nM
- IC50 (HCT116-mock-RNA-KO): > 10000 nM
